Peptide text beside a SMILES is read from it.
Assays:
splenocytes = experiment: Blastization with concavaline A (ConA) on splenocytes of PSC-treated young and old rats; format: in vivo, Sprague-Dawley rats
Protocol: Sprague-Dawley rats (Charles River, Calco (CO)), aged 10 weeks (young adults) and 24 months (old), were stabled under standard conditions (24°±1° C., 12 h light/dark cycle, free access to food and water). Handlings were made in such a way as to avoid stressful stimuli.
The animals were stabled in groups of 6 per cage and treated for 2 weeks (15 days) with a PSC daily dose of 600 mg/kg by intraperitoneal route (i.p.).
Once the treatment with PSC previously described in the paragraph "Animals" was completed, the animals were sacrificed by decapitation, spleens were excised under sterile conditions and broken up in a Petri dish. The splenocytes thus obtained by mechanical dispersion were placed in culture medium RPMI 1640 with addition of calf fetal serum (FBS) (10%).
The resulting cellular suspension was centrifuged at 2500 rpm for 20 min on Ficoll-Paque gradient. Stratified splenocytes were taken by a sterile Pasteur pipette and washed three times with sterile FBS. Cells were counted and placed onto 96-well plastic plates at a concentration of 1×10^5 /well in of volume of 0.1 ml. The cultures thus obtained were incubated for 48 hrs at 37° C., in a […] environment. Forty-eight hours later, concavaline A (ConcA) was added to the cultures at a concentration of 1 μg/ml in a volume of 0.1 ml. Eighteen hours later, tritiated thymidine was added (volume: 10 μl). Incorporation of tritiated thymidine was stopped after 3 hrs, by elimination of excess liquid by suction and by sucking the cells on fibreglass filters. Filters were placed in scintillation vials containing 5 ml of scintillating solution (Insta-Gel). Radioactivity (dpm) was measured during 2 min using a β-counter.
The results obtained on groups treated with ConA alone (controls), on groups treated with PSC (600 mg/kg), and on groups that had not been treated either with ConA or PSC are compared in Table 13.

hepatic GSH = experiment: Test No. 1: protection from ethanol acute administration, hepatic GSH content; format: in vivo, male albino Wistar rats; set-up: GSH Content: unit not given beside the values; details: for GSH Content: liver, ethanol 3 g/kg i.p.
Protocol: Protection from ethanol acute administration […] Male albino Wistar rats weighing between 180 and 230 g were used. All animals were fasted for 24 hours prior to administration of isotonic solution, ethanol or ethanol combined with the test substances. As concerns the test substances, rats were intraperitoneally (i.p.) injected with compound of formula I (R=CH3) at doses of 10, 30, and 50 mg/kg and, for purposes of comparison, with the single constituents of compound (I) (R=CH3), […] (O-PRO) and L-cysteine (CIS), both at a 50 mg/kg dose. One hour after administration of the test substance, ethanol was injected i.p. at the dose of 3 g/kg. Thirty minutes later, the animals were sacrificed by decapitation and their liver was excised. […] Orwar et al., J. Chromatrogr., 556, 39-55 (1991).

## CC(=O)SC[C@H](NC(=O)[C@@H]1CCC(=O)N1)C(=O)O [PSC, 2-(S)-(2-pyrrolidone-5-(S)-carbonyl amido)-3-acetylmercapto propionic acid] (HELM PEPTIDE1{[Glp].C}|PEPTIDE2{[ac]}$PEPTIDE1,PEPTIDE2,2:R3-1:R2$$$V2.0)
splenocytes; 600 mg/kg
  splenocytes blastization induced by ConA (in words): showed a significant increase in splenocytes blastization induced by ConA
splenocytes; 600 mg/kg i.p. 15 days + ConA
  blastization (tritiated thymidine incorporation), Young: 1488 ± 62 DPM × 100
splenocytes; 600 mg/kg i.p. 15 days + ConA, *P < 0.05
  blastization (tritiated thymidine incorporation), Old: 1250 ± 11 DPM × 100
Hepatic GSH; ethanol-treated rats
  hepatic glutathione formation (in words): enhances hepatic glutathione formation nearly to physiological levels
Hepatic GSH; test substance 10 mg/kg i.p.
  GSH Content: 3.6 ± 0.3
Hepatic GSH; test substance 30 mg/kg i.p.
  GSH Content: 4.3 ± 0.6
Hepatic GSH; test substance 50 mg/kg
  GSH Content: 5.8 ± 0.4

Reference: US5736565A, “Therapeutic compounds suitable for the treatment of diseases connected with glutathione deficiency, process for their preparation, and pharmaceutical compositions containing same” (Prospa B.V., priority 1992, dated 1998)
